# Laboratory results taken from the supplement of paper PMC10307832.
# Experiments:
# Test in all cases: relative viability (nuclei count vs DMSO), 5 days (fraction); higher = more cells survive
# [1] = compound: CN[C@@H]1C[C@H]2O[C@@](C)([C@@H]1OC)n1c3ccccc3c3c4c(c5c6ccccc6n2c5c31)C(=O)NC4 [Staurosporine] + Cc1nc(NC(=O)N2CCC[C@H]2C(N)=O)sc1-c1ccnc(C(C)(C)C(F)(F)F)c1 [Alpelisib] (partner 2 µM)
# Procedure, shortened: (§1)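 Relative viability was taken as the ratio of nuclei in treated wells to nuclei in vehicle wells. Lung cancer cell lines in 1536-well plates received compounds by pin tool one day after seeding, either one drug alone or a fixed anchor-drug dose plus five library-drug doses (not always all listed) in √10 steps. Nuclei were counted on 4× images after 5 days of treatment, and values are medians of duplicate plates.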
# [2] = compound: CN[C@@H]1C[C@H]2O[C@@](C)([C@@H]1OC)n1c3ccccc3c3c4c(c5c6ccccc6n2c5c31)C(=O)NC4 [Staurosporine] + C[C@@H](Oc1cc(-c2cnn(C3CCNCC3)c2)cnc1N)c1c(Cl)ccc(F)c1Cl [Crizotinib] (partner 1 µM)
# Procedure, shortened: as §1
# [3] = compound: O=c1[nH]cc(F)c(=O)[nH]1 [5-Fluorouracil] + Cc1nc(NC(=O)N2CCC[C@H]2C(N)=O)sc1-c1ccnc(C(C)(C)C(F)(F)F)c1 [Alpelisib] (partner 2 µM)
# Procedure, shortened: as §1
# Sulindac + Alpelisib = compound: CC1=C(CC(=O)O)c2cc(F)ccc2/C1=C\c1ccc([S+](C)[O-])cc1 [Sulindac] + Cc1nc(NC(=O)N2CCC[C@H]2C(N)=O)sc1-c1ccnc(C(C)(C)C(F)(F)F)c1 [Alpelisib] (partner 2 µM)
# Procedure, shortened: as §1
Cell Line,relative viability ([1]; first compound 0.005 µM),relative viability ([1]; first compound 0.01581 µM),relative viability ([1]; first compound 0.05 µM),relative viability ([1]; first compound 0.1581 µM),relative viability ([1]; first compound 0.5 µM),relative viability ([2]; first compound 0.005 µM),relative viability ([2]; first compound 0.01581 µM),relative viability ([2]; first compound 0.05 µM),relative viability ([2]; first compound 0.1581 µM),relative viability ([2]; first compound 0.5 µM),relative viability ([3]; first compound 0.02 µM),relative viability ([3]; first compound 0.2 µM),relative viability ([3]; first compound 0.6325 µM),relative viability ([3]; first compound 2 µM),relative viability (Sulindac + Alpelisib; first compound 0.08 µM),relative viability (Sulindac + Alpelisib; first compound 0.253 µM),relative viability (Sulindac + Alpelisib; first compound 0.8 µM),relative viability (Sulindac + Alpelisib; first compound 2.53 µM),relative viability (Sulindac + Alpelisib; first compound 8 µM)
NCI-H441,0.615,0.328,0.316,0.218,0.229,0.8,0.29,0.3,0.179,0.156,0.792,0.644,0.563,0.411,0.724,0.713,0.642,0.888,0.917
NCI-H460,0.367,0.198,0.024,0.0141,0.0076,0.708,0.677,0.0267,0.0065,0.0073,0.389,0.345,0.136,0.0626,0.82,0.492,,0.477,0.709
NCI-H520,1.2,0.784,0.544,0.477,0.165,0.711,0.448,0.279,0.188,0.11,0.537,0.975,0.717,0.383,0.965,0.839,0.894,0.873,1.17
NCI-H596,0.59,0.325,0.284,0.174,0.165,1.16,0.959,0.447,0.189,0.156,0.357,0.449,0.497,0.381,0.554,0.532,0.551,0.478,0.485
NCI-H647,0.51,0.218,0.117,0.0645,0.0592,0.53,0.295,0.162,0.0569,0.0579,0.897,0.915,1.06,0.767,1.43,1.27,0.718,1.15,1.23
NCI-H650,0.517,0.318,0.306,0.288,0.178,0.443,0.333,0.271,0.196,0.151,0.915,0.644,0.523,0.397,1.05,1.1,0.578,1.02,1.17
NCI-H661,0.651,0.313,0.303,0.283,0.251,1.03,0.9,0.81,0.501,0.415,0.598,1.12,0.597,0.612,0.639,0.551,0.535,0.621,0.725
NCI-H727,0.27,0.291,0.212,0.234,0.148,0.3,0.322,0.228,0.181,0.164,0.545,0.582,0.641,0.577,0.687,0.537,0.591,0.579,0.771
NCI-H838,0.274,0.208,0.19,0.246,0.114,0.259,0.179,0.175,0.168,0.127,0.874,0.882,0.484,0.29,1.22,0.983,0.769,0.975,1.08
NCI-H1299,1.13,0.874,0.237,0.205,0.196,0.516,0.385,0.55,0.163,0.142,1.11,1.14,0.953,0.763,1.23,1.19,0.624,1.2,1.08
NCI-H1355,0.718,0.422,0.21,0.215,0.203,0.834,0.727,0.366,0.258,0.234,0.716,0.551,0.372,0.286,0.912,0.945,0.784,0.842,0.854
NCI-H1437,0.918,0.663,0.487,0.413,0.242,0.924,0.702,,0.545,0.449,,0.226,0.171,0.111,1.25,0.905,0.733,0.946,1.17
NCI-H1563,0.813,0.57,0.63,0.53,0.489,0.696,0.559,0.635,0.587,0.503,0.772,0.931,0.821,0.841,0.915,0.853,0.86,0.884,0.923
NCI-H1651,0.778,0.564,0.385,0.223,0.109,0.945,0.765,0.575,0.549,0.385,1.01,0.672,0.552,0.504,1.2,1.1,0.874,0.911,1.3
NCI-H1666,0.582,0.371,0.375,0.177,0.175,0.536,0.528,0.418,0.236,0.2,0.823,0.442,0.35,0.306,,1.09,0.808,0.866,0.99
NCI-H1703,0.219,0.167,0.142,0.139,0.102,0.483,0.253,0.093,0.133,0.0695,0.279,0.327,0.371,0.359,0.37,0.346,0.301,0.461,0.341
NCI-H1734,0.635,0.344,0.239,0.202,0.149,0.627,0.4,0.279,0.165,0.132,0.559,0.756,0.582,0.529,0.712,0.696,0.64,0.693,0.805

Cell Line,relative viability ([1]; first compound 0.005 µM),relative viability ([1]; first compound 0.01581 µM),relative viability ([1]; first compound 0.05 µM),relative viability ([1]; first compound 0.1581 µM),relative viability ([1]; first compound 0.5 µM),relative viability ([2]; first compound 0.005 µM),relative viability ([2]; first compound 0.01581 µM),relative viability ([2]; first compound 0.05 µM),relative viability ([2]; first compound 0.1581 µM),relative viability ([2]; first compound 0.5 µM),relative viability ([3]; first compound 0.02 µM),relative viability ([3]; first compound 0.2 µM),relative viability ([3]; first compound 0.6325 µM),relative viability ([3]; first compound 2 µM),relative viability (Sulindac + Alpelisib; first compound 0.08 µM),relative viability (Sulindac + Alpelisib; first compound 0.253 µM),relative viability (Sulindac + Alpelisib; first compound 0.8 µM),relative viability (Sulindac + Alpelisib; first compound 2.53 µM),relative viability (Sulindac + Alpelisib; first compound 8 µM)
NCI-H1755,0.591,0.418,0.183,0.16,0.14,0.569,0.352,0.179,0.176,0.163,0.896,0.74,0.294,0.259,1.17,1.06,0.874,0.935,1
NCI-H1792,0.789,0.499,0.187,0.14,0.117,,0.822,0.418,0.154,0.16,0.691,0.606,0.168,0.116,0.959,0.717,,0.726,0.866
NCI-H1915,1.11,,0.587,0.445,0.357,0.903,,0.362,0.294,0.268,1.04,1.04,0.963,0.83,1.05,1.11,0.999,1.04,1.12
NCI-H1944,0.953,,0.483,0.384,0.341,1.13,,0.633,0.666,0.336,0.804,0.763,0.351,0.211,0.745,0.883,0.754,0.853,0.856
NCI-H1975,0.238,0.201,0.15,0.108,0.104,0.369,0.276,0.212,0.121,0.115,0.57,0.723,0.465,0.293,0.73,0.757,,0.674,0.694
NCI-H1993,0.623,0.668,0.578,0.503,0.449,0.861,0.78,0.527,0.487,0.298,0.687,0.569,0.608,0.698,0.664,0.674,0.695,0.753,0.707
NCI-H2009,0.864,0.276,0.267,0.173,0.141,0.255,0.22,0.174,0.123,0.0888,1.17,1.15,0.937,0.607,1.23,1.18,1.1,1.18,1.27
NCI-H2023,0.56,0.28,0.274,0.15,0.0702,0.262,0.288,0.132,0.0749,0.0599,0.456,0.256,0.124,0.0987,0.683,0.572,0.472,0.591,0.587
NCI-H2085,0.609,0.53,0.495,0.343,0.28,0.65,0.516,0.465,0.264,0.237,0.689,1.03,0.828,0.613,1.02,0.963,0.935,1.02,0.922
NCI-H2087,0.875,0.624,0.449,0.118,0.125,0.767,0.392,0.344,0.137,0.12,0.977,0.923,0.659,0.536,1.16,1,1.23,1.17,1.04
NCI-H2126,0.827,0.636,0.495,0.426,0.341,0.994,0.8,0.635,0.486,0.407,0.668,0.337,0.274,0.272,0.723,0.737,0.669,0.721,0.807
NCI-H2170,0.903,0.611,0.568,0.377,0.281,1.43,0.754,0.92,0.195,0.311,0.82,0.734,0.472,0.452,1.03,0.904,0.613,0.835,0.912
NCI-H2228,0.658,0.204,0.155,0.148,0.0961,0.292,0.234,0.177,0.169,0.132,0.582,0.655,0.59,0.409,0.67,0.862,0.725,0.825,0.753
NCI-H2347,1.03,0.67,0.34,0.364,,0.559,0.353,0.364,0.415,0.449,1.09,0.709,0.457,0.447,1.22,1.05,0.938,1.04,1.17
NCI-H2405,0.185,0.131,0.101,0.075,0.0622,0.681,0.319,0.146,0.125,0.106,0.793,0.705,0.737,0.609,0.725,0.794,0.713,0.796,0.917
NCI-H3122,1.07,0.302,0.758,0.209,0.217,0.443,0.465,0.59,0.32,0.318,0.796,0.653,0.371,0.246,0.639,0.722,0.699,0.756,0.941
PC-3 [JPC-3],1.05,,0.638,0.508,0.39,,,0.707,0.498,0.425,0.913,1.04,0.838,0.708,1.18,1.03,0.95,1.08,1.04
